Assay results as given in ChEMBL document CHEMBL5528047, “A Potent SOS1 PROTAC Degrader with Synergistic Efficacy in Combination with KRASG12C Inhibitor” (J Med Chem, 2024).
Activity calls are given as the source filed them. No cut-off for these calls is given here.

Columns and labels:
SW837 = test: Inhibition of ERK phosphorylation in human SW837 cells at 1 uM measured after 24 to 72 hrs in presence of AMG510 by Western blotting analysis; type: cell-based; settings: time 24-72 hrs
K562 [1] = test: Effect on total ERK level in human K562 cells at 0.3 to 3 uM incubated for 24 hrs by Western blotting analysis; type: functional, cell-based; settings: dose 0.3-3 µM
[2] = target: T1, von Hippel-Lindau disease tumor suppressor/Son of sevenless homolog 1 (Homo sapiens, UniProt Q07889+P40337); test: Protac activity at VHL/SOS1 in human NCI-H358 cells assessed as maximum SOS1 degradation at 0.003 to 10 uM incubated for 24 hrs by Western blotting analysis; type: cell-based; settings: dose 0.003-10 µM
Target sequence in this assay (P40337 whole entry, looked up, one chain of several): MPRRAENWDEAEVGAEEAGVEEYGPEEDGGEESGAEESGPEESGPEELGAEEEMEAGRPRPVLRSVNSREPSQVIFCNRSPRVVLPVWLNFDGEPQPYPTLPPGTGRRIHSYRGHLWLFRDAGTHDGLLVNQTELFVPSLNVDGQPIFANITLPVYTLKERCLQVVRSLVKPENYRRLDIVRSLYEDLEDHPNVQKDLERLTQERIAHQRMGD

[3] = target: T1, von Hippel-Lindau disease tumor suppressor/Son of sevenless homolog 1; test: Protac activity at VHL/SOS1 in human PANC-1 cells assessed as SOS1 degradation at 10 uM by Western blotting analysis relative to control; type: cell-based
Target sequence in this assay (P40337 whole entry, looked up, one chain of several): as above

K562 [4] = test: Antiproliferative activity against human K562 cells incubated for 72 hrs by CCK8 assay; type: functional, cell-based; settings: K562, 72 h
[5] = AUC(0 to infinity) in ICR mouse at 10 mg/kg, po measured upto 24 hrs by LC-MS/MS analysis; type: ADME, organism-based; settings: in vivo
[6] = target: T2, Son of sevenless homolog 1 (Homo sapiens) (UniProt Q07889); test: Induction of SOS1 degradation in human NCI-H358 cells at 1 uM measured upto 72 hrs by Western blotting analysis; type: cell-based
T2 sequence (whole entry): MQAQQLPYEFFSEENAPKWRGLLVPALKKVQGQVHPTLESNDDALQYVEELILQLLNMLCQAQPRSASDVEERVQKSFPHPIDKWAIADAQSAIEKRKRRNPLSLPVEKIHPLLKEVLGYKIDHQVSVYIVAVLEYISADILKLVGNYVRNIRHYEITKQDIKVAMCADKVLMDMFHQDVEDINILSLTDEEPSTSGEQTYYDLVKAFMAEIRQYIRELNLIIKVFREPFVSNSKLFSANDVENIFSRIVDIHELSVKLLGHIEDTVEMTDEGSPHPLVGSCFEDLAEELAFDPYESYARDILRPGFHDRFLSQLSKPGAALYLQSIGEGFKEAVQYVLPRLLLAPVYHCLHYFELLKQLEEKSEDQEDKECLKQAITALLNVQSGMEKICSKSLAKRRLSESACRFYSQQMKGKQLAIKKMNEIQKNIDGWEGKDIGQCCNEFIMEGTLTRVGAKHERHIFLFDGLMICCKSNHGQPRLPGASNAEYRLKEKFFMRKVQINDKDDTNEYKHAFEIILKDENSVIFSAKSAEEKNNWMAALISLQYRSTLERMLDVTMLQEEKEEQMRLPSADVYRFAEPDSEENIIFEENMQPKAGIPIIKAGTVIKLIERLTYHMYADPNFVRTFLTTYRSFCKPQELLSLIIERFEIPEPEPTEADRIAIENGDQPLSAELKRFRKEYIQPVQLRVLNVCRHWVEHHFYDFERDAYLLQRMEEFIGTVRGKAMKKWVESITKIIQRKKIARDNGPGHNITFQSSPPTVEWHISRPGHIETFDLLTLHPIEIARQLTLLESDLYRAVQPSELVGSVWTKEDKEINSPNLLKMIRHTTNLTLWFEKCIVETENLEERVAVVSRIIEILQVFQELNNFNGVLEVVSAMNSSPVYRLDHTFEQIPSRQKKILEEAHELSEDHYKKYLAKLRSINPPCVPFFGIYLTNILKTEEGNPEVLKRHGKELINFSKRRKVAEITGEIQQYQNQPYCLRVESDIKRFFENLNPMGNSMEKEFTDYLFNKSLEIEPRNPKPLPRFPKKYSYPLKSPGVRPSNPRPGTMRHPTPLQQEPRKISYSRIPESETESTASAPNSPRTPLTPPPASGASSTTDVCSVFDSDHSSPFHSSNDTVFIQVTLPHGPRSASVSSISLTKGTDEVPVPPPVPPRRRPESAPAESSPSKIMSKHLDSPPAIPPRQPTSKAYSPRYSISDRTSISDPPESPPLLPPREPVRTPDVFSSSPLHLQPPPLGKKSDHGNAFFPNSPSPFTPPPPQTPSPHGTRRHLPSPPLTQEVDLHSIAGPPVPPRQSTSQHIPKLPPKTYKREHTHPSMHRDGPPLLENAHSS

[7] = target: T1, von Hippel-Lindau disease tumor suppressor/Son of sevenless homolog 1; test: Protac activity at VHL/SOS1 in human K562 cells assessed as SOS1 degradation at 1 uM preincubated with BI3406 for 2 hrs followed by compound addition and measured after 2 hrs by Western blotting analysis; type: cell-based
Target sequence in this assay (P40337 whole entry, looked up, one chain of several): as the sequence (P40337 whole entry, looked up, one chain of several) above

K562 [8] = test: Potency index, ratio of BI3406 IC50 to test compound IC50 for antiproliferative activity against human K562 cells incubated for 72 hrs by CCK8 assay; type: functional
[9] = AUC(0 to t) in ICR mouse at 10 mg/kg, po measured upto 24 hrs by LC-MS/MS analysis; type: ADME, organism-based; settings: in vivo
[10] = target: T1, von Hippel-Lindau disease tumor suppressor/Son of sevenless homolog 1; test: Protac activity at VHL/SOS1 in human NCI-H358 cells assessed as SOS1 degradation incubated for 24 hrs by Western blotting analysis; type: cell-based
K562 [11] = test: Effect on total MEK level in human K562 cells at 0.3 to 3 uM incubated for 24 hrs by Western blotting analysis; type: functional, cell-based; settings: dose 0.3-3 µM
[12] = target: T1, von Hippel-Lindau disease tumor suppressor/Son of sevenless homolog 1; test: Protac activity at VHL/SOS1 in human MIA PaCa-2 cells assessed as SOS1 degradation incubated for 24 hrs by Western blotting analysis; type: cell-based
[13] = target: T1, von Hippel-Lindau disease tumor suppressor/Son of sevenless homolog 1; test: Protac activity at VHL/SOS1 in human K562 cells assessed as SOS1 degradation at 1 uM preincubated with MG132 for 2 hrs followed by compound addition and measured after 2 hrs by Western blotting analysis; type: cell-based
Target sequence in this assay (P40337 whole entry, looked up, one chain of several): as the sequence (P40337 whole entry, looked up, one chain of several) above

[14] = target: T1, von Hippel-Lindau disease tumor suppressor/Son of sevenless homolog 1; test: Protac activity at VHL/SOS1 in human K562 cells assessed as SOS1 degradation at 10 uM by Western blotting analysis relative to control; type: cell-based
Target sequence in this assay (P40337 whole entry, looked up, one chain of several): as the sequence (P40337 whole entry, looked up, one chain of several) above

[15] = target: T1, von Hippel-Lindau disease tumor suppressor/Son of sevenless homolog 1; test: Protac activity at VHL/SOS1 in human MIA PaCa-2 cells assessed as SOS1 degradation at 1 uM preincubated with BI3406 for 2 hrs followed by compound addition and measured after 3 hrs by Western blotting analysis; type: cell-based
Target sequence in this assay (P40337 whole entry, looked up, one chain of several): as the sequence (P40337 whole entry, looked up, one chain of several) above

[16] = Cmax in ICR mouse at 10 mg/kg, po measured upto 24 hrs by LC-MS/MS analysis; type: ADME, organism-based; settings: in vivo
[17] = target: T1, von Hippel-Lindau disease tumor suppressor/Son of sevenless homolog 1; test: Protac activity at VHL/SOS1 in human K562 cells assessed as SOS1 degradation at 1 uM incubated for 96 hrs by Western blotting analysis; type: cell-based
MIA PaCa-2 = test: Induction of apoptosis in human MIA PaCa-2 cells assessed as increase in cleaved PARP-1 level incubated for 24 hrs in presence of 4-((S)-4-acryloyl-2-methylpiperazin-1-yl)-6-fluoro-7-(2-fluoro-6-hydroxyphenyl)-1-(2-isopropyl-4-methylpyridin-3-yl)pyrido[2,3-d]pyrimidin-2(1H)-one by Western blotting assay; type: functional, cell-based
[18] = Half life in ICR mouse at 10 mg/kg, po measured upto 24 hrs by LC-MS/MS analysis; type: ADME, organism-based; settings: in vivo
[19] = target: T1, von Hippel-Lindau disease tumor suppressor/Son of sevenless homolog 1; test: Protac activity at VHL/SOS1 in human K562 cells assessed as SOS1 degradation at 1 uM preincubated with MLN4924 for 2 hrs followed by compound addition and measured after 2 hrs by Western blotting analysis; type: cell-based

Q: Which results are given for `COc1cc2nc(C)nc(N[C@H](C)c3cc(N)cc(C(F)(F)F)c3)c2cc1OCCCCC(=O)N[C@H](C(=O)N1C[C@H](O)C[C@H]1C(=O)NCc1ccc(-c2scnc2C)cc1)C(C)(C)C`?
A: inhibition (SW837): Active; Activity (K562 [1]): inactive; Emax [2]: > 90%; Activity [3]: 93.9%; IC50 (K562 [4]): 535 nM; AUC(0-inf) [5]: 4280 ng·h/mL; Activity [6]: Active; Activity [7]: inactive; Ratio IC50 (K562 [8]): 3; AUC(0-t) at 24 h [9]: 4260 ng·h/mL; Activity [10]: Dose-Dependent Effect; DC50 [10]: 50 nM; Activity (K562 [11]): inactive; Activity [12]: Dose-Dependent Effect; DC50 [12]: 61 nM; Activity [13]: inactive; Activity [14]: 93.3%; Activity [15]: inactive; Cmax [16]: 1650 ng/mL; Activity [17]: Active; Activity (MIA PaCa-2): Active; half-life [18]: 4.19 h; Activity [19]: inactive
